Results from patent publication US4990538A, “Use of toremifene and its metabolites for the reversal of multidrug resistance of cancer cells against cytotoxic drugs” (priority 1989, dated 1991).
“Also recorded” adds a separate entry of the source. Counter-ions that a name gives are not always drawn. Numbered stars: 1 amine (or outer) side, 2 acyl side, 3 side chain; on linkers, the order of the positions; unused ones are H or OH. Bridge positions count the residues as written; N and C are the ends. Square brackets hold non-standard residues; d marks the D form. Peptide text beside a SMILES is read from it. I, II: the chains in the order shown. Actinocin(9to1) = Cc1c2oc3c(C)ccc(C(=O)[*:1])c3nc-2c(C(=O)[*:2])c(N)c1=O; NMeV = CN[C@H](C(=O)O)C(C)C; Sar = CNCC(=O)O

Columns and labels:
rat PKC = conditions: O'Brian et al; cited from earlier work
MCF-7/DOX cells = experiment: Inhibition of cell growth / reversal of MDR in MCF-7/DOX cells (methylene blue); type: cell-based, human; conditions: for Effectiveness in reversing MDR: MCF-7/DOX cells, Table 5 and FIG. 7; for Inhibition of cell growth, Actual: 2880 min
Experimental: The cells were cultivated in 100 ul volumes in 96-well microtiter plates. The principle of the method was to cultivate cells in the presence of the drugs/ drug combinations for 48 hours. After this time the living cells were stained with methylene blue and quantitated spectrophotometrically using microtiter plate reader (Titertek Model MCC/340) interfaced to an Apple IIe computer. Inhibition of the cell growth is expressed as a percentage of absorbance of vehicle treated control cultures.

[1] = at dose levels or concentrations required for MDR reversal; cited from earlier work
MDR cell = conditions: Ramu et al; cited from earlier work
PKC = conditions: Horgan et al; cited from earlier work
cultured cells = conditions: Sutherland et al; cited from earlier work
[2] = test system: MCF-7 oestrogen receptor positive breast cancer cell line; conditions: Foster et al, cited from earlier work; for Modulation of multidrug resistance: 10 μM tamoxifen or perhexilene maleate
CHO-Adr cells = experiment: MTT cell viability assay in doxorubicin resistant CHO-Adr cells; conditions: CHO-Adr cell line
Experimental: Initial cell growth studies were carried out to investigate the effect of combination toremifene +doxorubicin in doxorubicin sensitive and resistant cells. Cell cultures were carried out using wild type CHO-K1 cells as well as CHO-Adr cells, the latter being selected by a series of step-wise selections of doxorubicin resistant clones in presence of 0.4 ug/ml of doxorubicin. […] The resistant cells were stable in cell culture in the absence of doxorubicin. Both cell lines were cultivated in Hams F10 medium supplemented with 5% newborn calf serum, 5% foetal calf serum, antibiotics and 3mM glutamine. The cells were maintained as monolayer cultures 37° C. under 5% CO2. Drug sensitivity in CHO-K1and CHO-Adr cells was assessed by a semi-automated colorimetric MTT assay. The assay is dependent on the cellular reduction of MTT (3-U4,5-dimethylthiazol-2-ylA-2,5-diphenyl tertazolium bromide, thiazolyl blue) by the mitochondrial dehydrogenase of viable cells to a blue formazan product which was measured spectrophotometrically. The cells were seeded on 96-well plates and allowed to settle for 12 hours at 37° C. in 5% CO2. Appropriate drug concentrations diluted in growth medium were added for 24 hours. Toremifene was dissolved in 95% ethanol stock solution, doxorubicin stock solution was prepared in water. […] The cells were incubated with the drugs for 24 hours, after which the cells were washed twice with phosphate buffered saline before being placed in 200 μl fresh medium for a further 48 hours. At the end of this incubation 0.1 mg MTT was added to each well and incubated for 4 hours. The medium was carefully aspirated and the crystals were solubilised in 100 μ l DMSO (dimethyl sulfoxide). Absorbances at 540 nm were read immediately on an ELISA Multiskan reader. The results were expressed as a percentage of absorbance of drug treated cells compared to controls.
The effect of AAG in the concentration of 0.1 to 2 mg/ml was assessed on the potentiation produced by toremifene.

HOV-018 = experiment: Number of living cells (bioluminescence), ovarian cancer line HOV-018; conditions: toremifene 0 μM, 4320 min
Experimental: (§1) Two human ovarian cell lines were established in vitro from fresh serous ovarian cancer tissues. The lines are coded HOV-007 and HOV-018. The cells were cultivated in Eagle's MEM containing 1% unstripped foetal calf serum. The assays were carried out at 37° C. in 5% CO2 on 96 well plates.

B-16 melanoma = experiment: Schedule dependency of antitumor effect in B-16 melanoma
Experimental: (§2) Lewis Lung (LL) or melanoma B-16 tumor cells, 2×10^6 cells/animal, were inoculated intramuscularly to female C-57 mice. Tumors were allowed to grow to the mean diameter of 1.5 cm after which toremifene/doxorubicin treatments were started as indicated in the next tables. Tumor size was measured before treatment and after 10 days in 2 dimensions and the mean was considered as tumor diameter. Weight of the animals was also recorded.

Human melanoma UV-me-1 = experiment: Toremifene and doxorubicin in human melanoma UV-me-1; conditions: for Toremifene and doxorubicin in UV-me-1 (living cells): toremifene 0 μM, 2 days, control 100
Lewis Lung (LL) tumor = experiment: Schedule dependency of antitumor effect in Lewis Lung tumor
Experimental: as §2

HOV-007 = experiment: Number of living cells (bioluminescence), ovarian cancer line HOV-007; conditions: toremifene 0 μM, 3 days
Experimental: as §1
presented. Number of cells was quantitated after 3 days'

[3] = drug 0.6 μg/ml +1 μM doxorubicin
[4] = doxorubicin 3 mg/kg s.c. days 1-5
[5] = doxorubicin 3 mg/kg s.c. days 6-10

CCC(=C(c1ccc(O)cc1)c1ccc(OCCN(C)C)cc1)c1ccccc1 [4-hydroxy tamoxifen]
Inhibition of rat PKC activity in vitro (rat PKC): inhibition of rat PKC activity in vitro

CN(C)CCOc1ccc(C(=C(CCCl)c2ccccc2)c2ccc(O)cc2)cc1 [4-hydroxytoremifene, 4-chloro-1-(4-hydroxyphenyl)-2-phenyl-1-(4-(2-(N,N-dimethylamino)ethoxy)phenyl)-1-butene]
Effectiveness in reversing MDR (MCF-7/DOX cells): slightly less effective | Inhibition of cell growth, Actual (MCF-7/DOX cells; [3]): 28 % control | Potential (potentiation of doxorubicin activity) (MCF-7/DOX cells; [3]): 8 % control | Inhibition of cell growth, Actual (MCF-7/DOX cells; drug […] +1 μM doxorubicin): 45 % control | Potential (potentiation of doxorubicin activity) (MCF-7/DOX cells; drug […] +1 μM doxorubicin): 10 % control

CNCCOc1ccc(C(=C(CCCl)c2ccccc2)c2ccccc2)cc1 [N-demethyltoremifene, 4-chloro-1,2-diphenyl-1-(4-(2-(N-methylamino)ethoxy)phenyl)-1-butene]
Effectiveness in reversing MDR (MCF-7/DOX cells): almost equally effective | Inhibition of cell growth, Actual (MCF-7/DOX cells; [3]): 28 % control | Potential (potentiation of doxorubicin activity) (MCF-7/DOX cells; [3]): 33 % control | Inhibition of cell growth, Actual (MCF-7/DOX cells; drug […] +1 μM doxorubicin): 40 % control | Potential (potentiation of doxorubicin activity) (MCF-7/DOX cells; drug […] +1 μM doxorubicin): 43 % control

CC/C(=C(\c1ccccc1)c1ccc(OCCN(C)C)cc1)c1ccccc1 [Tamoxifen, tamoxifen]
Safety / toxicity in clinical use [1]: higher toxicity | Effectiveness in reversing MDR (MCF-7/DOX cells): almost equally effective | Reversal of MDR by triparonol analogues (MDR cell): reversal of MDR | Inhibition of PKC activity in vivo (PKC): inhibition of PKC activity in vivo | Inhibition of rat PKC activity in vitro (rat PKC): inhibition of rat PKC activity in vitro | Reversal by oestradiol of growth inhibitory effects of high doses (cultured cells): could not be reversed by oestradiol | Modulation of multidrug resistance [2]: modulation of multidrug resistance; also recorded: possess activity for reversing MDR | C14-doxorubicin accumulation [2]: no increase in C14-doxorubicin accumulation | Effect of 50 nM estradiol on the effects of tamoxifen [2]: did not attenuate the effects of tamoxifen

Cc1c2oc3c(C)ccc(C(=O)N[C@@H]4C(=O)N[C@H](C(C)C)C(=O)N5CCC[C@H]5C(=O)N(C)CC(=O)N(C)[C@@H](C(C)C)C(=O)O[C@@H]4C)c3nc-2c(C(=O)N[C@@H]2C(=O)N[C@H](C(C)C)C(=O)N3CCC[C@H]3C(=O)N(C)CC(=O)N(C)[C@@H](C(C)C)C(=O)O[C@@H]2C)c(N)c1=O [actinomycin D, reference compound] (I: T[dV]P[Sar][NMeV] / II: T[dV]P[Sar][NMeV]; ester I:1-I:C, II:1-II:C; linker I:N-II:N via Actinocin(9to1))
Resistance of the CHO-Adr cell line (CHO-Adr cells): cross-resistant

CCN(CC)CCOc1ccc(C(=C(Cl)c2ccccc2)c2ccccc2)cc1 [clomiphene]
Reversal of MDR by triparonol analogues (MDR cell): reversal of MDR

COc1cc2c(c(OC)c1OC)-c1ccc(OC)c(=O)cc1[C@@H](NC(C)=O)CC2 [colchicine, reference compound]
Resistance of the CHO-Adr cell line (CHO-Adr cells): cross-resistant

COc1cccc2c1C(=O)c1c(O)c3c(c(O)c1C2=O)C[C@@](O)(C(C)=O)C[C@@H]3O[C@H]1C[C@H](N)[C@H](O)[C@H](C)O1 [daunorubicin, reference compound]
Resistance of the CHO-Adr cell line (CHO-Adr cells): cross-resistant

COc1cccc2c1C(=O)c1c(O)c3c(c(O)c1C2=O)C[C@@](O)(C(=O)CO)C[C@@H]3O[C@H]1C[C@H](N)[C@H](O)[C@H](C)O1 [doxorubicin]
Number of living cells (HOV-018; doxorubicin 0.1 μg/ml): 96% of control values | Number of living cells (HOV-018; doxorubicin 0.3 μg/ml): 89% of control values | Change of body weight (B-16 melanoma; [4]): -5 g | Change of tumor size (B-16 melanoma; [4]): +1.9 mm | Change of body weight (B-16 melanoma; [5]): -2 g | Change of tumor size (B-16 melanoma; [5]): +3.1 mm | Sensitivity of the cell line (Human melanoma UV-me-1; UV-me-1): relatively sensitive | Toremifene and doxorubicin in UV-me-1 (living cells) (Human melanoma UV-me-1; doxorubicin 0.1 μg/ml): 74 | Toremifene and doxorubicin in UV-me-1 (living cells) (Human melanoma UV-me-1; doxorubicin 1.0 μg/ml): 9 | Change of body weight (Lewis Lung (LL) tumor; [4]): -2 g | Change of tumor diameter (Lewis Lung (LL) tumor; [4]): +2.0 mm | Change of body weight (Lewis Lung (LL) tumor; [5]): +10 g | Change of tumor diameter (Lewis Lung (LL) tumor; [5]): +3.7 mm | Resistance of the CHO-Adr cell line (CHO-Adr cells): resistant | Number of living cells (HOV-007; doxorubicin 0.1 μg/ml): 87% of control values | Number of living cells (HOV-007; doxorubicin 0.3 μg/ml): 64% of control values | Number of living cells (HOV-007; doxorubicin 1.0 μg/ml): 41% of control values

COc1ccc2c(c1)CCC(c1ccccc1)=C2c1ccc(OCCN2CCCC2)cc1 [nafoxidine]
Reversal of MDR by triparonol analogues (MDR cell): reversal of MDR

C1CCC(C(CC2CCCCN2)C2CCCCC2)CC1 (stereo not shown) [perhexilene maleate, perhexiline maleate]
Modulation of multidrug resistance [2]: modulation of multidrug resistance
